# According to US10016358B2 (ROLF KULLGREN AB, priority 2008, dated 2018):
# Counter-ions that a name gives are not always drawn.
# Tests used:
# Format in all cases: cell-based
# C. albicans = experiment: Fungicidal effect of lactate compared with HCl at identical pH (FIG. 1); details: 5% solution at pH 3.8; incubation at 37 C for two hours; control 1,000,000CFU
# C.albicans ATCC 64549 = experiment: Minimum microbicidal concentration of lactate (microbicidal assay); details: for killed: after 2.5 h of incubation; for Remaining viability: 2.5 h at 37° C.
# Protocol: (§1) E.coli O6K5 (a urinary tract infection pathogen), a group B Streptococcus strain (GBS) CCUG 49086, and C.albicans ATCC 64549, The microorganisms were incubated over night in BHI medium. Thereafter the suspensions were transferred to new tubes and incubated for 2.5 h at 37° C. The cells were washed and suspended in diluted BHI ( 1/100, BHIdll). The suspensions were measured spectrophotometrically at 590 nm and the concentrations of the microrganisms adjusted according to standard curves. The bacterial suspensions were adjusted to 2×10^8CFU per ml and C.albicans
# (§2) One lactate suppository was dissolved in 0.5 ml of distilled water. A lactate solution of 11.5% was obtained. This solution was used in the microbicidal assay.
# (§3) The lactate solution was serially diluted in BHIdll by twofold steps in tubes (100 μl piper tube). The bacterial and yeast cell solutions were added in 10 μl volumes to give a final concentration of approximately 2×10^7 and 1×10^5 cells per ml respectively. The tubes were incubated at 37° C. on a shaker for 2.5 h. Five ul were taken from each tube and added as a drop (in triplicate) onto a blood agar plate and incubated over night at 37° C. The killing was expressed as remaining colony forming units (CFU) in relation to the inoculum. The lower limit for detection of microorganisms was 200 CFU/ml. The viability of any remaining microorganism in the tubes was checked by diluting the remaining solutions to 1/5 with growth medium, resulting in a 2.3% lactate solution or less, and incubation of the tubes over night at 37 C. The next day, once again 5 μl of the solutions were applied as drops onto blood agar plates and incubated at 37° C. over night.
# [1] = tested on: group B Streptococcus strain (GBS) CCUG 49086; experiment: as above; details: for Remaining viability: 2.5 h at 37° C.; for killed: after 2.5 h of incubation
# Protocol: as §1, §2, §3
# E.coli O6K5 = experiment: as above; details: for Remaining viability: 2.5 h at 37° C.
# Protocol: as §1, §2, §3
compound,measurement,setting,value
CC(O)C(=O)O (stereo not shown) [lactate],viable colony forming units of C. albicans,C. albicans,< 100 CFU
same,killed,C.albicans ATCC 64549; 5.8% of lactate,99.4%
same,killed,C.albicans ATCC 64549; 11.5% of lactate,100%
same,lactate concentration that effectively killed the pathogen,C.albicans ATCC 64549; 2.5 h incubation,≥ 5.8%
same,Remaining viability,C.albicans ATCC 64549; lactate concentration 0.35%,+ (no distinguishable colonies (>50 CFU per area = >10^4 CFU per ml))
same,Remaining viability,C.albicans ATCC 64549; lactate concentration 0.7%,+ (no distinguishable colonies (>50 CFU per area = >10^4 CFU per ml))
same,Remaining viability,C.albicans ATCC 64549; lactate concentration 1.4%,+ (no distinguishable colonies (>50 CFU per area = >10^4 CFU per ml))
same,Remaining viability,C.albicans ATCC 64549; lactate concentration 2.9%,+ (no distinguishable colonies (>50 CFU per area = >10^4 CFU per ml))
same,Remaining viability,C.albicans ATCC 64549; lactate concentration 5.8%,0.6 ± 0.4^¤ percentage of the inoculum
same,Remaining viability,C.albicans ATCC 64549; lactate concentration 11.5%,0
same,lactate concentration that effectively killed the pathogen,[1]; 2.5 h incubation,≥ 5.8%
same,Remaining viability,[1]; lactate concentration 0.35%,+ (no distinguishable colonies (>50 CFU per area = >10^4 CFU per ml))
same,Remaining viability,[1]; lactate concentration 0.7%,+ (no distinguishable colonies (>50 CFU per area = >10^4 CFU per ml))
same,Remaining viability,[1]; lactate concentration 1.4%,+ (no distinguishable colonies (>50 CFU per area = >10^4 CFU per ml))
same,Remaining viability,[1]; lactate concentration 2.9%,+ (no distinguishable colonies (>50 CFU per area = >10^4 CFU per ml))
same,Remaining viability,[1]; lactate concentration 5.8%,0
same,killed,[1]; lactate concentration 5.8%,100%
same,Remaining viability,[1]; lactate concentration 11.5%,0
same,killed,[1]; lactate concentration 11.5%,100%
same,lactate concentration that effectively killed the pathogen,E.coli O6K5; 2.5 h incubation,≥ 5.8%
same,Remaining viability,E.coli O6K5; lactate concentration 0.35%,0
same,Remaining viability,E.coli O6K5; lactate concentration 0.7%,0
same,Remaining viability,E.coli O6K5; lactate concentration 1.4%,0
same,Remaining viability,E.coli O6K5; lactate concentration 2.9%,0
same,Remaining viability,E.coli O6K5; lactate concentration 5.8%,0
same,Remaining viability,E.coli O6K5; lactate concentration 11.5%,0
same,killed,"E.coli O6K5; lowest concentration of lactate tested (0.35%), after 2.5 h of incubation",100%
"Cl [HCl, reference compound]",viable colony forming units of C. albicans,C. albicans,"100,000 CFU"
